Assays:
[1] = tested on: influenza virus; set-up: species or system NMRI mice; details: mouse, in vivo
[2] = in vivo; cited from earlier work
[3] = tested on: 5'-nucleotidase (from Crotalus atrox venom); assay type: biochemical
[4] = tested on: 5'-nucleotidase; assay: Percent hydrolysis by 5'-nucleotidase, further set of experiments; assay type: biochemical, Crotalus atrox; details: 20 minutes, 200 µl

Q: For `CC(C)CCCC(C)CCCC(C)CCCCC(C)CCCC(C)CCCC(C)C` (stereo not drawn) [Squalane], which “effect on survivors and MST” value [1] is on record?
A: no effect

Q: With isoprinosine as the compound, how does the half-life [2] read?
A: less than four

Q: Which “Hydrolysis (%)” value [3] does the source give for `Nc1ncnc2c1ncn2[C@@H]1O[C@H](COP(=O)(O)O)[C@@H](O)[C@H]1O` [Adenosine MP, adenosine-5'-monophosphate] here?
A: 86.0%

Q: What about the “Percent hydrolysis by 5'-nucleotidase” value ([4]; Assay 1) of the same compound?
A: 100.0%

Q: What about the “Percent hydrolysis by 5'-nucleotidase” value ([4]; Assay 2) of the same compound?
A: 95.1%

Q: What about the “Percent hydrolysis by 5'-nucleotidase” value ([4]; Assay 3) of the same compound?
A: 63.7%
